The experiment concerns the target T1, PI3Kα (p110α/p85α) (Homo sapiens, UniProt P42336).
T1 construct: purchased BPS Bioscience (San Diego, Calif.) or Millipore (Billerica, Mass.)
As to the kind of experiment: HTRF assay, potency against active PI3Kα. The format is biochemical. To be noted: HTRF; [ATP]=50 μM, [di-C8-PIP2]=10 μM; 30 min pre-incubation; read-out: PI3Kα Inhibition. The procedure:
Homogeneous Time Resolved Fluorescence (HTRF) Assay Protocol for Potency Assessment Against the Active Forms of PI3Kα, PI3Kβ, and PI3Kγ
The mechanics of the assay platform are best described by the vendor (Millipore, Billerica, Mass.) on their website at the following URL: www.millipore.com/coa/tech1/74jt4z.
Briefly, Stop solution (Stop A, #33-007 and Stop B, #33-009; 3:1 ratio) and Detection Mix (from DMC, #33-015 with DMA, #33-011 and DMB, #33-013; 18:1:1 ratio) were prepared as recommended by the manufacturer about 2 hrs prior to use. […] Lipid kinase reactions were started with the addition of 5 μL of ATP solution, mixed for 15 sec on a rotary plate shaker and incubated for 30-60 minutes at 25° C. Next, reactions were stopped with a 5 μL addition of Stop solution immediately followed by a 5 μL volume of Detection Mix. […] At the conclusion of each assay, the HTRF ratio from fluorescence emission values for each well was calculated and % Inhibition determined from averaged controls wells (+/−PI3K enzyme). % Inhibition values for each compound were then plotted against inhibitor concentration to estimate IC50 from log [Inhibitor] vs Response, Variable Slope model in GraphPad Prism from GraphPad Software (San Diego, Calif.).
On the technique in general: In TR-FRET formats the signal depends on donor and acceptor labels being close together.

Bounds are passed on as bounds.

T1 sequence (P42336 whole entry): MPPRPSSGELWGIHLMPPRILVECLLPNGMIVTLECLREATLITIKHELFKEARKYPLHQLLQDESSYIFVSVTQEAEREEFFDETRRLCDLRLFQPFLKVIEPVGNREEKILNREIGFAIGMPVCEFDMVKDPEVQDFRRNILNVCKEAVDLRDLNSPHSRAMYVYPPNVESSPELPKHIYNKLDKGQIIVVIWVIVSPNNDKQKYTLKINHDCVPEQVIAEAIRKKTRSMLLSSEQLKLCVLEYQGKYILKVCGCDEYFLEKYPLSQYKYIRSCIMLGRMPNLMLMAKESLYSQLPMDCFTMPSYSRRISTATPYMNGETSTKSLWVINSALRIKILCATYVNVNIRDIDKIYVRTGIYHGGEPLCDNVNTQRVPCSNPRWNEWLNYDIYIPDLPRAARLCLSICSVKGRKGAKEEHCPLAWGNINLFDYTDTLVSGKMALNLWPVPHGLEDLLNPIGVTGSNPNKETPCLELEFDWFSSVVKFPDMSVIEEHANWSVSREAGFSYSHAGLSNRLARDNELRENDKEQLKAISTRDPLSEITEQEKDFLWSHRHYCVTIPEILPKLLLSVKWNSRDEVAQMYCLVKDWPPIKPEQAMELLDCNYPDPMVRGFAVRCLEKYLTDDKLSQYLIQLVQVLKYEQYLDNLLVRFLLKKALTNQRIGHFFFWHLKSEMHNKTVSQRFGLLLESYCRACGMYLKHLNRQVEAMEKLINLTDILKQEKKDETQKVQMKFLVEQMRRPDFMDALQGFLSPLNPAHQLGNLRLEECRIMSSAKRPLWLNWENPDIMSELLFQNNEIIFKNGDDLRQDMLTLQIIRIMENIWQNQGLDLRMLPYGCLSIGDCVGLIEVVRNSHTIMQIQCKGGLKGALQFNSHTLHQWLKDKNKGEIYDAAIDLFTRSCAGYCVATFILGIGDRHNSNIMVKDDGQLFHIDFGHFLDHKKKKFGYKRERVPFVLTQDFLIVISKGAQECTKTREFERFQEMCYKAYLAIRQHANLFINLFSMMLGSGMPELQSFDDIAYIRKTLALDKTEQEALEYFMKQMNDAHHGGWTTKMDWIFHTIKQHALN
T1 sequence (P27986 whole entry partner): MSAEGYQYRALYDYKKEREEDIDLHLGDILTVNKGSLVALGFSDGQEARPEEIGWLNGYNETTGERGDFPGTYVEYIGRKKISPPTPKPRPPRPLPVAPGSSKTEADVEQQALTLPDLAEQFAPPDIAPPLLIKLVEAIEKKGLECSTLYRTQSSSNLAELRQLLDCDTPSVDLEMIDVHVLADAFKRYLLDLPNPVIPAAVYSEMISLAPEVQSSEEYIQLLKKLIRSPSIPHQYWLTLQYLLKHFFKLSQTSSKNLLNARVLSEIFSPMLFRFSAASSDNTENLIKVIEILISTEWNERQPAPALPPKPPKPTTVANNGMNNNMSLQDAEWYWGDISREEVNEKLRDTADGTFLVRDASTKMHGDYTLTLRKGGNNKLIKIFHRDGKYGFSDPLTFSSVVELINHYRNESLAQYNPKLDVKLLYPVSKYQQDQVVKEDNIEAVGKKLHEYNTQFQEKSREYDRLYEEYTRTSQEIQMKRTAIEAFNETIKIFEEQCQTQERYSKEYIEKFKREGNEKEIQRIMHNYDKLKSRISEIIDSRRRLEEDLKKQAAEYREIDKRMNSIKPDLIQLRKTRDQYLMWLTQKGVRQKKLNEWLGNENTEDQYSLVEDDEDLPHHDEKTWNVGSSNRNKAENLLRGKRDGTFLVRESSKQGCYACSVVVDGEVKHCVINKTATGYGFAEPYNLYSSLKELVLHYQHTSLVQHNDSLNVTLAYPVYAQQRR

Consider `CC(C)=CC(=O)CCC(=O)N1CCN(Cc2cc3nc(-c4cnc(N)nc4)cc(N4CCOCC4)c3s2)CC1` [II-g-7, 1-(4-((5-(2-aminopyrimidin-5-yl)-7-morpholinothieno[3,2-b]pyridin-2-yl)methyl)piperazin-1-yl)-6-methylhept-5-ene-1,4-dione], for which the IC50 was in the range of 100 to 1000 nM.
To `C=CC(=O)NCC12CCC(c3cc4nc(-c5cccc6[nH]ncc56)nc(N5CCOCC5)c4s3)(CC1)OC2` [II-a-153, N-((1-(2-(1H-indazol-4-yl)-4-morpholinothieno[3,2-d]pyrimidin-6-yl)-2-oxabicyclo[2.2.2]octan-4-yl)methyl)acrylamide] belongs 100 to 1000 nM.
Consider `C=CC(=O)NCc1ccc(-c2cc3nc(-c4cccc(O)c4)nc(N4CCOCC4)c3s2)cc1` [II-a-65, N-(4-(2-(3-hydroxyphenyl)-4-morpholinothieno[3,2-d]pyrimidin-6-yl)benzyl)acrylamide], for which the IC50 was less than 10 nM.
To `CC(C)CC(=O)C(=O)N1CCN(c2ccc(-c3cc(-c4cnc(N)nc4)nc(N4CCOCC4)c3)cn2)CC1` [XII-29, 1-(4-(2′-(2-aminopyrimidin-5-yl)-6′-morpholino-3,4′-bipyridin-6-yl)piperazin-1-yl)-4-methylpentane-1,2-dione] belongs 100 to 1000 nM.
To `C=CC(=O)Nc1ccc(C(=O)N2CC=C(c3cc4nc(-c5cnc(N)nc5)cc(C5=CCOCC5)c4s3)CC2)cc1` [II-g-5, N-(4-(4-(5-(2-aminopyrimidin-5-yl)-7-(3,6-dihydro-2H-pyran-4-yl)thieno[3,2-b]pyridin-2-yl)-1,2,3,6-tetrahydropyridine-1-carbonyl)phenyl)acrylamide] belongs greater than 1000 nM; to `C/C(=C\c1ccccn1)C(=O)CCC(=O)N1CCN(Cc2cc3nc(-c4cccc5[nH]ncc45)nc(N4CCOCC4)c3s2)CC1` [II-a-167, (E)-1-(4-((2-(1H-indazol-4-yl)-4-morpholinothieno[3,2-d]pyrimidin-6-yl)methyl)piperazin-1-yl)-5-methyl-6-(pyridin-2-yl)hex-5-ene-1,4-dione], 100 to 1000 nM; to `CC(C)=CC(=O)CCC(=O)N1CCN(Cc2cc(-c3cnc(N)nc3)nc(N3CCOCC3)c2)CC1` [XII-1, 1-(4-((2-(2-aminopyrimidin-5-yl)-6-morpholinopyridin-4-yl)methyl)piperazin-1-yl)-6-methylhept-5-ene-1,4-dione], 100 to 1000 nM.
For the compound `C=CC(=O)Nc1ccc(CNC(=O)c2cc(-c3cccc4[nH]ncc34)nc(N3CCOCC3)c2)cc1` [XII-14, N-(4-acrylamidobenzyl)-2-(1H-indazol-4-yl)-6-morpholinoisonicotinamide], the IC50 was greater than 1000 nM.
The result for `C=CC(=O)N1CCN(c2ccc(-c3cc4nc(-c5cccc6[nH]ncc56)nc(N5CCOCC5)c4s3)cc2)CC1` [II-a-78, 1-(4-(4-(2-(1H-indazol-4-yl)-4-morpholinothieno[3,2-d]pyrimidin-6-yl)phenyl)piperazin-1-yl)prop-2-en-1-one] reads 100 to 1000 nM; that for `C/C=C/C(=O)CCC(=O)N1CCN(Cc2cc3nc(-c4ccnc5[nH]ccc45)nc(N4CCOCC4)c3s2)CC1` [II-a-114, (E)-1-(4-((4-morpholino-2-(1H-pyrrolo[2,3-b]pyridin-4-yl)thieno[3,2-d]pyrimidin-6-yl)methyl)piperazin-1-yl)hept-5-ene-1,4-dione], 100 to 1000 nM.
For `C=CC(=O)N1CCc2ccc(-c3cc4nc(-c5cccc(O)c5)nc(N5CCOCC5)c4s3)cc2C1` [II-a-106, 1-(7-(2-(3-hydroxyphenyl)-4-morpholinothieno[3,2-d]pyrimidin-6-yl)-3,4-dihydroisoquinolin-2(1H)-yl)prop-2-en-1-one], the IC50 lay in the range of 10 to 100 nM.
Regarding `CC(C)=CC(=O)C(=O)Nc1ccc(C#Cc2cc(-c3cnc(N)nc3)nc(N3CCOCC3)c2)cc1` [XII-22, N-(4-((2-(2-aminopyrimidin-5-yl)-6-morpholinopyridin-4-yl)ethynyl)phenyl)-4-methyl-2-oxopent-3-enamide], the IC50 is less than 10 nM.
To `C/C=C/C(=O)OCC(=O)N1CCN(Cc2cc3nc(-c4cccc5[nH]ncc45)nc(N4CCOCC4)c3s2)CC1` [II-a-146, (E)-2-(4-((2-(1H-indazol-4-yl)-4-morpholinothieno[3,2-d]pyrimidin-6-yl)methyl)piperazin-1-yl)-2-oxoethyl but-2-enoate] belongs greater than 1000 nM.
For `C/C=C/C(=O)CCC(=O)N1CCC(n2nc(-c3ccc(OC)c(OC)c3)c3c(N)ncnc32)CC1` [XI-1, (E)-1-(4-(4-amino-3-(3,4-dimethoxyphenyl)-1H-pyrazolo[3,4-d]pyrimidin-1-yl)piperidin-1-yl)hept-5-ene-1,4-dione], the IC50 is greater than 1000 nM.
Regarding `O=C(/C=C/c1ccccc1)CCC(=O)N1CCC(O)(c2cc3nc(-c4cccc5[nH]ncc45)nc(N4CCOCC4)c3s2)CC1` [II-a-136, (E)-1-(4-(2-(1H-indazol-4-yl)-4-morpholinothieno[3,2-d]pyrimidin-6-yl)-4-hydroxypiperidin-1-yl)-6-phenylhex-5-ene-1,4-dione], the IC50 lay within 100 to 1000 nM.
The result for `C=CC(=O)NCC(=O)N1CCCc2cccc(-c3cc4nc(-c5cccc(O)c5)nc(N5CCOCC5)c4s3)c21` [II-a-124, N-(2-(8-(2-(3-hydroxyphenyl)-4-morpholinothieno[3,2-d]pyrimidin-6-yl)-3,4-dihydroquinolin-1(2H)-yl)-2-oxoethyl)acrylamide] reads 100 to 1000 nM.
To `CC(C)=CC(=O)CCCCC#Cc1cc(-c2cnc(N)nc2)nc(N2CCOCC2)c1` [XII-6, 10-(2-(2-aminopyrimidin-5-yl)-6-morpholinopyridin-4-yl)-2-methyldec-2-en-9-yn-4-one] belongs 100 to 1000 nM; to `C=CC(=O)N1CCN(c2ccc(-c3cc(-c4cnc(N)nc4)nc(N4CCOCC4)c3)cn2)CC1` [XII-28, 1-(4-(2′-(2-aminopyrimidin-5-yl)-6′-morpholino-3,4′-bipyridin-6-yl)piperazin-1-yl)prop-2-en-1-one], 100 to 1000 nM; to `C=CC(=O)Nc1ccc(C(=O)N2CCN(c3cc(-c4cnc(N)nc4)nc(N4CCOCC4)c3)CC2)cc1` [XII-53, N-(4-(4-(2-(2-aminopyrimidin-5-yl)-6-morpholinopyridin-4-yl)piperazine-1-carbonyl)phenyl)acrylamide], 100 to 1000 nM.
With `C=CC(=O)Nc1ccc(C(=O)N2CCC(n3nc(-c4ccc(OC)c(OC)c4)c4c(N)ncnc43)CC2)cc1` [XI-6, N-(4-(4-(4-amino-3-(3,4-dimethoxyphenyl)-1H-pyrazolo[3,4-d]pyrimidin-1-yl)piperidine-1-carbonyl)phenyl)acrylamide], the IC50 is greater than 1000 nM.
To `C/C=C/C(=O)CCC(=O)N1CCN(c2ccc(-c3cc4nc(-c5cccc(O)c5)nc(N5CCOCC5)c4s3)cc2)CC1` [II-a-102, (E)-1-(4-(4-(2-(3-hydroxyphenyl)-4-morpholinothieno[3,2-d]pyrimidin-6-yl)phenyl)piperazin-1-yl)hept-5-ene-1,4-dione] belongs less than 10 nM; to `COc1ccc(-c2nn(C3CCN(C(=O)CCCC(=O)/C=C/c4ccccc4)CC3)c3ncnc(N)c23)cc1OC` [XI-5], greater than 1000 nM; to `C/C=C/C(=O)CCC(=O)NCc1cccc(-c2cc3nc(-c4cccc(O)c4)nc(N4CCOCC4)c3s2)c1` [II-a-79, (E)-N-(3-(2-(3-hydroxyphenyl)-4-morpholinothieno[3,2-d]pyrimidin-6-yl)benzyl)-4-oxohept-5-enamide], less than 10 nM.
The result for `C=CC(=O)Nc1cccc(C(=O)N2CC=C(c3cc4nc(-c5cnc(N)nc5)nc(N5CCOCC5)c4s3)CC2)c1` [II-a-171, N-(3-(4-(2-(2-aminopyrimidin-5-yl)-4-morpholinothieno[3,2-d]pyrimidin-6-yl)-1,2,3,6-tetrahydropyridine-1-carbonyl)phenyl)acrylamide] reads less than 10 nM; that for `C/C=C/C(=O)CCC(=O)N1CCC2(CC1)CN(c1cc(-c3cnc(N)nc3)nc(N3CCOCC3)c1)C2` [XII-40, (E)-1-(2-(2-(2-aminopyrimidin-5-yl)-6-morpholinopyridin-4-yl)-2,7-diazaspiro[3.5]nonan-7-yl)hept-5-ene-1,4-dione], 100 to 1000 nM; that for `C=CC(=O)N1CCC2(CC1)CCN(C(=O)c1cc3nc(-c4cccc(O)c4)nc(N4CCOCC4)c3s1)CC2` [II-a-119, 1-(9-(2-(3-hydroxyphenyl)-4-morpholinothieno[3,2-d]pyrimidine-6-carbonyl)-3,9-diazaspiro[5.5]undecan-3-yl)prop-2-en-1-one], 100 to 1000 nM.
Regarding `CC(C)=CC(=O)CCCC(=O)N1CC=C(c2cc3nc(-c4cnc(N)nc4)cc(C4=CCOCC4)c3s2)CC1` [II-g-4, 1-(4-(5-(2-aminopyrimidin-5-yl)-7-(3,6-dihydro-2H-pyran-4-yl)thieno[3,2-b]pyridin-2-yl)-5,6-dihydropyridin-1(2H)-yl)-7-methyloct-6-ene-1,5-dione], the IC50 was greater than 1000 nM.
The result for `CC(C)=CC(=O)C1(C(=O)N2CC=C(C#Cc3cc(-c4cnc(N)nc4)nc(N4CCOCC4)c3)CC2)CC1` [XII-37, 1-(1-(4-((2-(2-aminopyrimidin-5-yl)-6-morpholinopyridin-4-yl)ethynyl)-1,2,3,6-tetrahydropyridine-1-carbonyl)cyclopropyl)-3-methylbut-2-en-1-one] reads 10 to 100 nM.
